Where a name gives a salt, the structure may show the parent alone.
Key:
HCC827 cells = assay: In vivo effect of combined use of Compound A and osimertinib on subcutaneously transplanted HCC827 tumors (estimated tumor volume); parameters: species or system nude mouse;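 note: subcutaneous xenografts in female nude mice, tumor axes measured by caliper over time, volume as major axis × minor axis²/2, dosing from Day 1 five days weekly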
Experimental: (§1) 0.1 mL of the prepared cell suspension was subcutaneously transplanted to each nude mouse (female, 5 weeks old). […] The administration was started on the day (Day 1) following the grouping date and carried out five times a week (Saturday and Sunday were set to drug holidays). […] The major axis (mm) and minor axis (mm) of each tumor were measured over time using an electronic digital caliper. The estimated tumor volume was calculated according to the expression (1) given below, and plotted. Also, the body weight was measured over time using an automatic balance for small animals. The rate of change in body weight (Change in body weight (%)) was calculated according to the expression (2) given below. […] Estimated tumor volume (mm^3)=Mean estimated tumor volume of individuals per group (1) Estimated tumor volume of each individual=An×Bn^2/2
An: Major axis of the tumor at Day n
(§2) Bn: Minor axis of the tumor at Day n Change in body weight (%)=Mean rate of change in body weights of individuals per group (2) Rate of change in body weight of each individual=(1−BWn/BWs)×100

[1] = Change in body weight and general symptoms in HCC827 tumor-bearing mice
Experimental: as §1, §2
BWn: Body weight at Day n
BWs: Body weight at the initial day of administration

[2] = Day 0, Compound A 12.5 mg/kg, bid
[3] = Day 0, Compound A 25 mg/kg, bid
[4] = Day 0, Compound A 50 mg/kg, bid
[5] = Day 4, Compound A 12.5 mg/kg, bid
[6] = Day 4, Compound A 25 mg/kg, bid
[7] = Day 4, Compound A 50 mg/kg, bid
[8] = Day 7, Compound A 12.5 mg/kg, bid
[9] = Day 7, Compound A 25 mg/kg, bid
[10] = Day 7, Compound A 50 mg/kg, bid
[11] = Day 11, Compound A 12.5 mg/kg, bid
[12] = Day 11, Compound A 25 mg/kg, bid
[13] = Day 11, Compound A 50 mg/kg, bid
[14] = Day 14, Compound A 12.5 mg/kg, bid
[15] = Day 14, Compound A 25 mg/kg, bid
[16] = Day 14, Compound A 50 mg/kg, bid
[17] = Day 18, Compound A 12.5 mg/kg, bid
[18] = Day 18, Compound A 25 mg/kg, bid
[19] = Day 18, Compound A 50 mg/kg, bid
[20] = Day 21, Compound A 12.5 mg/kg, bid
[21] = Day 21, Compound A 25 mg/kg, bid
[22] = Day 21, Compound A 50 mg/kg, bid
[23] = Day 25, Compound A 12.5 mg/kg, bid
[24] = Day 25, Compound A 25 mg/kg, bid
[25] = Day 25, Compound A 50 mg/kg, bid
[26] = Day 28, Compound A 25 mg/kg, bid
[27] = Day 11, osimertinib 3 mg/kg, qd
[28] = Day 14, osimertinib 3 mg/kg, qd
[29] = Day 18, osimertinib 3 mg/kg, qd
[30] = Day 21, osimertinib 3 mg/kg, qd
[31] = Day 25, osimertinib 3 mg/kg, qd
[32] = Day 28, osimertinib 3 mg/kg, qd
[33] = Day 32, osimertinib 3 mg/kg, qd
[34] = Day 35, osimertinib 3 mg/kg, qd
[35] = Day 39, osimertinib 3 mg/kg, qd
[36] = Day 46, osimertinib 3 mg/kg, qd
[37] = Day 49, osimertinib 3 mg/kg, qd
[38] = Day 53, osimertinib 3 mg/kg, qd
[39] = Day 56, osimertinib 3 mg/kg, qd
[40] = Day 60, osimertinib 3 mg/kg, qd
[41] = Day 63, osimertinib 3 mg/kg, qd
[42] = Day 67, osimertinib 3 mg/kg, qd
[43] = Day 74, osimertinib 3 mg/kg, qd
[44] = Day 77, osimertinib 3 mg/kg, qd
[45] = Day 81, osimertinib 3 mg/kg, qd
[46] = Day 84, osimertinib 3 mg/kg, qd
[47] = Day 88, osimertinib 3 mg/kg, qd
[48] = Day 91, osimertinib 3 mg/kg, qd
[49] = Day 95, osimertinib 3 mg/kg, qd
[50] = Day 100, osimertinib 3 mg/kg, qd

What does the source list for `COc1cc(-c2cnc(N)c(-c3ccc(NC(=O)c4cn(CC5CCOCC5)cc(-c5ccc(C)cn5)c4=O)cc3F)c2)ccc1OC[C@H]1COCCO1` [Compound A, N-[4-(2-amino-5-{4-[(2R)-1,4-dioxan-2-ylmethoxy]-3-methoxyphenyl}pyridin-3-yl)-3-fluorophenyl]-5-methyl-4′-oxo-1′-(tetrahydro-2H-pyran-4-ylmethyl)-1′,4′-dihydro-2,3′-bipyridine-5′-carboxamide sulfate hydrate]?
Mean estimated tumor volume (HCC827 cells; [2]): 269.0 mm^3; Mean estimated tumor volume (HCC827 cells; [3]): 273.7 mm^3; Mean estimated tumor volume (HCC827 cells; [4]): 279.7 mm^3; Mean estimated tumor volume (HCC827 cells; [5]): 376.3 mm^3; Mean estimated tumor volume (HCC827 cells; [6]): 366.6 mm^3; Mean estimated tumor volume (HCC827 cells; [7]): 386.5 mm^3; Mean estimated tumor volume (HCC827 cells; [8]): 446.8 mm^3; Mean estimated tumor volume (HCC827 cells; [9]): 458.8 mm^3; Mean estimated tumor volume (HCC827 cells; [10]): 468.3 mm^3; Mean estimated tumor volume (HCC827 cells; [11]): 580.4 mm^3; Mean estimated tumor volume (HCC827 cells; [12]): 550.8 mm^3; Mean estimated tumor volume (HCC827 cells; [13]): 579.7 mm^3; Mean estimated tumor volume (HCC827 cells; [14]): 647.2 mm^3; Mean estimated tumor volume (HCC827 cells; [15]): 631.7 mm^3; Mean estimated tumor volume (HCC827 cells; [16]): 676.8 mm^3; Mean estimated tumor volume (HCC827 cells; [17]): 759.0 mm^3; Mean estimated tumor volume (HCC827 cells; [18]): 718.2 mm^3; Mean estimated tumor volume (HCC827 cells; [19]): 816.3 mm^3; Mean estimated tumor volume (HCC827 cells; [20]): 835.6 mm^3; Mean estimated tumor volume (HCC827 cells; [21]): 792.0 mm^3; Mean estimated tumor volume (HCC827 cells; [22]): 856.2 mm^3; Mean estimated tumor volume (HCC827 cells; [23]): 1013.6 mm^3; Mean estimated tumor volume (HCC827 cells; [24]): 939.4 mm^3; Mean estimated tumor volume (HCC827 cells; [25]): 1037.5 mm^3; Mean estimated tumor volume (HCC827 cells; [26]): 1097.1 mm^3; Mean change in body weight [1, 2]: 0.0%; Mean change in body weight [1, 3]: 0.0%; Mean change in body weight [1, 4]: 0.0%; Mean change in body weight [1, 5]: 1.3%; Mean change in body weight [1, 6]: 0.6%; Mean change in body weight [1, 7]: 0.9%; Mean change in body weight [1, 8]: 0.7%; Mean change in body weight [1, 9]: 1.8%; Mean change in body weight [1, 10]: 1.4%; Mean change in body weight [1, 11]: 1.2%; Mean change in body weight [1, 12]: 1.0%; Mean change in body weight [1, 13]: 2.9%; Mean change in body weight [1, 14]: 0.4%; Mean change in body weight [1, 15]: 0.0%; Mean change in body weight [1, 16]: 2.4%; Mean change in body weight [1, 17]: 3.6%; Mean change in body weight [1, 18]: 0.6%; Mean change in body weight [1, 19]: 3.6%; Mean change in body weight [1, 20]: 4.8%; Mean change in body weight [1, 21]: 3.1%; Mean change in body weight [1, 22]: 6.7%; Mean change in body weight [1, 23]: 4.4%; Mean change in body weight [1, 24]: 4.6%; Mean change in body weight [1, 25]: 5.1%; Mean change in body weight [1, 26]: 3.0%

For `C=CC(=O)Nc1cc(Nc2nccc(-c3cn(C)c4ccccc34)n2)c(OC)cc1N(C)CCN(C)C` [osimertinib, N-(2-{[2-(dimethylamino)ethyl](methyl)amino}-4-methoxy-5-{[4-(1-methyl-1H-indol-3-yl)pyrimidin-2-yl]amino}phenyl)propen-2-amide], which “Mean estimated tumor volume” value (HCC827 cells; Day 0, osimertinib 3 mg/kg, qd) is on record?
The value was 259.3 mm^3.

And the “Mean estimated tumor volume” value (HCC827 cells; Day 4, osimertinib 3 mg/kg, qd)?
Its value is 93.1 mm^3.

And the “Mean estimated tumor volume” value (HCC827 cells; Day 7, osimertinib 3 mg/kg, qd)?
Its value is 56.7 mm^3.

What about the “Mean estimated tumor volume” value (HCC827 cells; [27]) of the same compound?
Its value is 38.7 mm^3.

What about the “Mean estimated tumor volume” value (HCC827 cells; [28]) of the same compound?
The value was 33.1 mm^3.

What about the “Mean estimated tumor volume” value (HCC827 cells; [29]) of the same compound?
Its value is 30.9 mm^3.

And the “Mean estimated tumor volume” value (HCC827 cells; [30])?
The value was 29.6 mm^3.

What about the “Mean estimated tumor volume” value (HCC827 cells; [31]) of the same compound?
The value was 32.0 mm^3.

What about the “Mean estimated tumor volume” value (HCC827 cells; [32]) of the same compound?
Its value is 32.0 mm^3.

What about the “Mean estimated tumor volume” value (HCC827 cells; [33]) of the same compound?
Its value is 35.5 mm^3.

What about the “Mean estimated tumor volume” value (HCC827 cells; [34]) of the same compound?
The value was 42.1 mm^3.

And the “Mean estimated tumor volume” value (HCC827 cells; [35])?
Its value is 44.9 mm^3.

What about the “Mean estimated tumor volume” value (HCC827 cells; [36]) of the same compound?
Its value is 53.3 mm^3.

What about the “Mean estimated tumor volume” value (HCC827 cells; [37]) of the same compound?
Its value is 63.7 mm^3.

And the “Mean estimated tumor volume” value (HCC827 cells; [38])?
The value was 80.8 mm^3.

And the “Mean estimated tumor volume” value (HCC827 cells; [39])?
Its value is 92.4 mm^3.

And the “Mean estimated tumor volume” value (HCC827 cells; [40])?
Its value is 103.3 mm^3.

And the “Mean estimated tumor volume” value (HCC827 cells; [41])?
The value was 134.1 mm^3.

And the “Mean estimated tumor volume” value (HCC827 cells; [42])?
The value was 146.2 mm^3.

What about the “Mean estimated tumor volume” value (HCC827 cells; [43]) of the same compound?
Its value is 182.1 mm^3.

What about the “Mean estimated tumor volume” value (HCC827 cells; [44]) of the same compound?
The value was 220.1 mm^3.

What about the “Mean estimated tumor volume” value (HCC827 cells; [45]) of the same compound?
Its value is 285.7 mm^3.

And the “Mean estimated tumor volume” value (HCC827 cells; [46])?
Its value is 341.2 mm^3.

What about the “Mean estimated tumor volume” value (HCC827 cells; [47]) of the same compound?
The value was 404.1 mm^3.

And the “Mean estimated tumor volume” value (HCC827 cells; [48])?
The value was 509.3 mm^3.

What about the “Mean estimated tumor volume” value (HCC827 cells; [49]) of the same compound?
Its value is 602.4 mm^3.

What about the “Mean estimated tumor volume” value (HCC827 cells; [50]) of the same compound?
Its value is 727.5 mm^3.

What about the “Day at which the tumor became bigger than its size at the start of administration (acquired resistance)” value (HCC827 cells; mouse, in vivo, 3 mg/kg) of the same compound?
The value was 81 days.

What about the “Effect on tumor immediately after administration” value (HCC827 cells; osimertinib administered alone, 3 mg/kg qd) of the same compound?
Its value is “tumor regression effect”.

What about the “Mean change in body weight” value ([1]; Day 0, osimertinib 3 mg/kg, qd) of the same compound?
The value was 0.0%.

And the “Mean change in body weight” value ([1]; Day 4, osimertinib 3 mg/kg, qd)?
Its value is 0.1%.

What about the “Mean change in body weight” value ([1]; Day 7, osimertinib 3 mg/kg, qd) of the same compound?
The value was 1.0%.

What about the “Mean change in body weight” value [1, 27] of the same compound?
The value was 0.3%.

What about the “Mean change in body weight” value [1, 28] of the same compound?
The value was 1.1%.

What about the “Mean change in body weight” value [1, 29] of the same compound?
Its value is 0.9%.

And the “Mean change in body weight” value [1, 30]?
Its value is 2.7%.

What about the “Mean change in body weight” value [1, 31] of the same compound?
Its value is 2.6%.

What about the “Mean change in body weight” value [1, 32] of the same compound?
The value was 1.1%.

What about the “Mean change in body weight” value [1, 33] of the same compound?
Its value is 2.0%.

And the “Mean change in body weight” value [1, 34]?
Its value is 3.1%.

What about the “Mean change in body weight” value [1, 35] of the same compound?
The value was 4.0%.

What about the “Mean change in body weight” value ([1]; Day 42, osimertinib 3 mg/kg, qd) of the same compound?
Its value is 3.2%.

What about the “Mean change in body weight” value [1, 36] of the same compound?
Its value is 4.5%.

And the “Mean change in body weight” value [1, 37]?
Its value is 5.0%.

What about the “Mean change in body weight” value [1, 38] of the same compound?
The value was 5.1%.

What about the “Mean change in body weight” value [1, 39] of the same compound?
Its value is 5.3%.

And the “Mean change in body weight” value [1, 40]?
The value was 5.4%.

And the “Mean change in body weight” value [1, 41]?
The value was 5.7%.

And the “Mean change in body weight” value [1, 42]?
Its value is 6.4%.

And the “Mean change in body weight” value ([1]; Day 70, osimertinib 3 mg/kg, qd)?
Its value is 5.7%.

And the “Mean change in body weight” value [1, 43]?
The value was 7.4%.

What about the “Mean change in body weight” value [1, 44] of the same compound?
Its value is 6.6%.

And the “Mean change in body weight” value [1, 45]?
Its value is 8.9%.

And the “Mean change in body weight” value [1, 46]?
Its value is 8.0%.

What about the “Mean change in body weight” value [1, 47] of the same compound?
Its value is 8.8%.

And the “Mean change in body weight” value [1, 48]?
The value was 9.6%.

And the “Mean change in body weight” value [1, 49]?
The value was 11.7%.

And the “Mean change in body weight” value ([1]; Day 98, osimertinib 3 mg/kg, qd)?
Its value is 11.2%.

What about the “Mean change in body weight” value [1, 50] of the same compound?
The value was 11.9%.

Source: patent publication US11806339B2, “Combination therapy of Axl inhibitor and EGFR tyrosine kinase inhibitor” (Daiichi Sankyo Company, Limited, priority 2017, dated 2023)
